Measurements from patent US7935708B2, “Dihydropyrazolopyrimidinone derivatives” (MSD K.K., priority 2006, dated 2011).
pEC50: −log10 of the molar value.

Test system: Human colon cancer cells (WiDr)
Assay: Checkpoint escape effect in gemcitabine-treated WiDr cells (phosphorylated histone H3-positive cells)
Assay type: cell-based
Settings: gemcitabine 100 nM 24 hours, then test compound with nocodazole 8 hours
From the text: Pharmaceutical Text 3 (Method of Determining Drug Potency in Cells (Checkpoint-Removing Effect))
Fetal bovine serum (FBS) was obtained from Morgate; DMEM was from Invitrogen; gemcitabine was from Nippon Eli Lilly; nocodazole and 4′,6-diamidino-2-phenylindole were from Sigma; rabbit anti-phosphorylated histone H3 antibody was from Upstate; and fluorescence-labeled (Alexa Fluor 488) anti-rabbit IgG antibody was from Molecular Probe.
Human colon cancer cells (WiDr) were obtained from American Type Culture Collection (ATCC).
c) Method of Effect Determination:
The cells were suspended in DMEM containing 10% FBS, and the cell suspension was applied to a poly-D-lysine-coated 96-well plastic plate (bought from Becton Dickinson) in an amount of 2000 cells/100 μL/well, in which the cells were incubated overnight in 5% CO2-95% air at 37° C. Gemcitabine was dissolved in phosphate-buffered saline (PBS), and diluted with DMEM containing 10% FBS, and then this was applied to the plate on which the cells had been previously sowed, in an amount of 50 μL/well in such a manner that the final concentration of gemcitabine could be 100 nM. Then, the cells were incubated for 24 hours at 37° C. in 5% CO2-95% air. The test compound was stepwise diluted with dimethylsulfoxide, then diluted with 1200 nM nocodazole-containing DMEM containing 10% FBS, and applied to the plate on which the gemcitabine-treated cells had been sowed, in an amount of 50 μL/well. […] Next, this was washed with PBS, and a solution containing 4′,6-diamidino-2-phenylindole that had been diluted with 1% BSA/PBS to have a concentration 10 μg/mL and a fluorescence-labeled (Alexa Fluor 488) anti-rabbit IgG antibody that had been diluted 250-fold was added to it in an amount 50 μL/well, and reacted in a dark place at room temperature for 60 minutes. Finally, this was washed with PBS, and its fluorescence intensity was determined to calculate the ratio of the phosphorylated histone H3-positive cells (cells that had been in a cell division cycle through removal of checkpoint). […]

pEC50	SMILES
6.57	C=CCn1c(=O)c2cnc(Nc3ccc(N4CCN(C)CC4)c(CO)c3)nc2n1-c1ccsc1 [Example 3, 2-allyl-6-{[3-(hydroxymethyl)-4-(4-methylpiperazin-1-yl)phenyl]amino}-1-(3-thienyl)-1,2-dihydro-3H-pyrazolo[3,4-d]pyrimidin-3-one]
7.00	C=CCn1c(=O)c2cnc(Nc3ccc(N4CCN(C)CC4)cc3)nc2n1-c1cccc(N2CCN(C)C2=O)n1 [Example 148, 2-allyl-1-[6-(3-methyl-2-oxoimidazolidin-1-yl)pyridin-2-yl]-6-{[4-(4-methylpiperazin-1-yl)phenyl]amino}-1,2-dihydro-3H-pyrazolo[3,4-d]pyrimidin-3-one]
